# Measurements published in patent publication US20070161568A1, “Use of GLP-1 peptides” (Novo Nordisk A/S, priority 1996, published 2007).
# Read-outs that look alike come from different tables or passages of the source. No end group written: not given here.
# Key:
# food intake in rats = details: cited from earlier work
# [1] = system: food intake in normal human subjects; test: iv infusion of GLP-1(7-36)amide in a double-blind crossover trial: visual analogue scale ratings and ad libitum lunch energy intake; format: in vivo
# Excerpt: The effect of GLP-1(7-36)amide on food intake in normal human subjects.
# Healthy human volunteers (20 subjects) were in a double-blind crossover trial given an iv infusion of 50 pmol/(kg·h) of GLP-1(7-36)amide or saline on separate, but otherwise identical experimental days. The infusion was started at 9.00 and lasted until 15.00. At 9.45 the subjects received a fixed amount of breakfast and at 14.15 they had lunch of an identical composition but ad libitum. The subjects rated their feeling of satiety, hunger, fullness and appetite on a visual analogue scale every half hour. The results are given below: • Satiety: GLP-1>Saline, p=0.006 • Hunger: GLP-1<Saline, p=0.007 • Fullness: GLP-1>Saline, p=0.010 • Appetite: GLP-1<Saline, p=0.007
# The energy intake of each subjects was measured. The intakes were 3.9 MJ with GLP-1 and 4.3 MJ with Saline resulting in a p-value of 0.009.
# [2] = system: appetite suppression in mice; test: appetite suppression in mice: sucrose consumption, tested immediately after ip injection (Example 2); format: in vivo; details: 85 micrograms (equivalent to 3.4 mg/kg), 10 minute period, p-value 0.002
# Protocol: Test method for measuring appetite suppression in mice.
# Mice were deprived of their normal food for two days and given free access to a 20% sucrose solution on the first day of food deprivation. After the two day food deprivation period, the mice were injected intraperitoneally with 0.5 ml of a solution containing the test substance. Immediately after injection, individual mice were placed in one of eight 15 cm square test boxes with a stainless steel grid floor and a glass drinking tube which projected into the box. […] Consumption of the sucrose solution was measured over a 10 minute period by electronically recording the total amount of contact with the sucrose solution during the test session. The degree of appetite suppression produced by a given test substance was determined by statistical comparison of the mean duration of sucrose consumption by control (vehicle treated) mice with that of mice treated with a test substance. The degree of appetite suppression in a treated group of mice was expressed as percent difference between the test and control group's response duration means. […]
# [3] = healthy human volunteers, iv infusion 50 pmol/(kg·h) vs saline, p=0.007
substance,measurement,setting,value
"GLP-1(1-36)amide (HDEFERHAEGTFTSDVSSYLEGQAAKEFIAWLVKGR-NH2; UniProt P01275 92-127, looked up, fragment) [GLP-1 fragment 1-36 as C-terminal amide, literature result]",effect on food intake,"food intake in rats; route not stated, Tang-Christensen et al.",no effect
"GLP-1(7-36)amide (HAEGTFTSDVSSYLEGQAAKEFIAWLVKGR-NH2; UniProt P01275 98-127, looked up) [fragment 7-36 of GLP-1 as C-terminal amide]",Satiety (visual analogue scale),"[1]; healthy human volunteers, iv infusion 50 pmol/(kg·h) vs saline, rated every half hour, p=0.006",GLP-1>Saline
same,Appetite (visual analogue scale),[1]; [3],GLP-1<Saline
same,Hunger (visual analogue scale),[1]; [3],GLP-1<Saline
same,Fullness (visual analogue scale),"[1]; healthy human volunteers, iv infusion 50 pmol/(kg·h) vs saline, p=0.010",GLP-1>Saline
same,suppression of sucrose consumption,[2],60%
"GLP-1: proglucagon fragment 72-108, commonly referred to as GLP-1(1-37) or just GLP-1; in b61 it means GLP-1(7-36)amide",energy intake,"[1]; ad libitum lunch, iv infusion 50 pmol/(kg·h), saline 4.3 MJ, p-value 0.009",3.9 mJ
same,effect on food intake,"food intake in rats; administered intracerebroventricularly, Tang-Christensen et al.",profound effect
same,effect on food intake,"food intake in rats; administered intracerebroventricularly, Turton et al.",profound effect
same,effect on food intake,"food intake in rats; peripheral administration, Turton et al.",inactive
same,effect on food intake,"food intake in rats; peripherally administered, Tang-Christensen et al.",no significant effect
